Measured values: PMC5529658, “Antiproliferative and Antibacterial Activities of Cirsium scabrum from Tunisia” (Evidence-based Complementary and Alternative Medicine : eCAM, 2017)
Values belong to the compound of their own block, whether it stands above or below them.

Key:
Format in all cases: cell-based
[1] = tested on: J774 (macrophage-like cell line, derived from BALB/c murine reticulum cell sarcoma); test: MTT cytotoxicity assay on J774
Protocol: (§1) Cell Culture. The cytotoxicity was evaluated on two cell lines: J774 (macrophage-like cell line, derived from BALB/c murine reticulum cell sarcoma) and WI38 (human normal fibroblast-like lung cell line), using the tetrazolium salt MTT [3-(4,5-dimethylthiazol-2-yl)-2,5-diphenyltetrazolium bromide (Sigma)] colorimetric method, as described by Bero et al.. J774 cells were cultivated in a humidified atmosphere with 5% CO2 at 37°C in RPMI 1640 medium (Life Technologies, Paisley, UK) containing 2 mM L-glutamine supplemented with 10% heat-inactivated fetal bovine serum (Life Technologies) and penicillin-streptomycin (100 UI/ml). WI38 cells were cultivated in a humidified atmosphere with 5% CO2 at 37°C in DMEM medium (Life Technologies) containing 4 mM L-glutamine, 1 mM sodium pyruvate supplemented with 10% heat-inactivated fetal bovine serum (Life Technologies), and penicillin-streptomycin (100 UI/ml).
Cytotoxicity Assay. Briefly, WI38 or J774 cells were seeded in 96-well plates (5000 cells/well/180 µl medium or 2.8 × 10^4 cells/ml). After 24 h, cells were treated with 20 μl of crude extract and partitions solutions in a fixed concentration of 50 µg/ml to calculate cell viability percentage. […] After 72 h, the medium was replaced by 100 μl of a 10% MTT solution (3 mg/ml in PBS) in medium. After 45 min, the medium was removed again and 100 μl of DMSO was added to solubilize formed formazan crystals. Absorbance was recorded at 570 nm and 620 nm. Each sample was tested in eight serial […] dilutions in 96-well microtiter plates, at least three wells per concentration in duplicate. Camptothecin (Sigma) was used as positive control (concentration range: 25–0.00032 µg/ml).
(§2) Cell viability% = [AT/ANT] × 100, with A: absorbance, NT: control cells, and T: treated cells.

[2] = tested on: WI38 (human normal fibroblast-like lung cell line); test: MTT cytotoxicity assay on WI38; conditions: WI-38, 72 h, mean ± SEM, six determinations
Protocol: as §1
Cytotoxicity Assay. Briefly, WI38 or J774 cells were seeded in 96-well plates (5000 cells/well/180 µl medium or 2.8 × 10^4 cells/ml). After 24 h, cells were treated with 20 μl of crude extract and partitions solutions in a fixed concentration of 50 µg/ml to calculate cell viability percentage. […] Absorbance was recorded at 570 nm and 620 nm. […]
as §2

[3] = tested on: Corynebacterium striatum T46C1; test: Antimicrobial assay (MIC, agar dilution)
Protocol: (§3) The antimicrobial activity of crude extract and partitions was evaluated against 36 pathogenic microorganisms (22 Gram-positive bacteria, 13 Gram-negative bacteria, and 1 yeast) according to Mahamodo et al.. The 36 microorganisms were grown overnight at 37°C on sloping Mueller-Hinton (MH) agar medium. Briefly, the bacteria were diluted with Ringer's Cysteine (RC) solution to obtain 10^6 bacteria/ml. […] Inocula of 10^4 colony forming units (CFU) were spotted ultimately with a multipoint inoculator (Steers Replicator).

[4] = tested on: Staphylococcus capitis T21A3; test: Antimicrobial assay (MIC, agar dilution)
Protocol: as §3

[5] = tested on: Staphylococcus aureus 8142; test: Antimicrobial assay (MIC, agar dilution)
Protocol: as §3

[6] = tested on: Staphylococcus capitis T29A2; test: Antimicrobial assay (MIC, agar dilution)
Protocol: as §3

[7] = tested on: Staphylococcus pettenkoferi T282; test: Antimicrobial assay (MIC, agar dilution)
Protocol: as §3

[8] = tested on: Staphylococcus aureus 8143; test: Antimicrobial assay (MIC, agar dilution)
Protocol: as §3

[9] = tested on: Staphylococcus lugdunensis T36A1; test: Antimicrobial assay (MIC, agar dilution)
Protocol: as §3

[10] = tested on: Staphylococcus aureus T2510; test: Antimicrobial assay (MIC, agar dilution)
Protocol: as §3

[11] = tested on: Enterococcus faecalis T37B1; test: Antimicrobial assay (MIC, agar dilution)
Protocol: as §3

[12] = tested on: Staphylococcus aureus T281; test: Antimicrobial assay (MIC, agar dilution)
Protocol: as §3

Escherichia coli T20A2 = test: Antimicrobial assay (MIC, agar dilution)
Protocol: as §3

[13] = tested on: Pseudomonas aeruginosa ATCC9027; test: Antimicrobial assay (MIC, agar dilution)
Protocol: as §3

[14] = tested on: Corynebacterium striatum T40A3; test: Antimicrobial assay (MIC, agar dilution)
Protocol: as §3

[15] = tested on: Staphylococcus epidermidis T151; test: Antimicrobial assay (MIC, agar dilution)
Protocol: as §3

[16] = tested on: Staphylococcus lugdunensis T47B2; test: Antimicrobial assay (MIC, agar dilution)
Protocol: as §3

[17] = tested on: Staphylococcus aureus T61; test: Antimicrobial assay (MIC, agar dilution)
Protocol: as §3

[18] = tested on: Staphylococcus epidermidis T19A1; test: Antimicrobial assay (MIC, agar dilution)
Protocol: as §3

[19] = tested on: Staphylococcus saprophyticus 8237; test: Antimicrobial assay (MIC, agar dilution)
Protocol: as §3

[20] = tested on: Dermabacter hominis T49B5; test: Antimicrobial assay (MIC, agar dilution)
Protocol: as §3

[21] = tested on: Enterococcus faecalis T47A16; test: Antimicrobial assay (MIC, agar dilution)
Protocol: as §3

[22] = tested on: Staphylococcus aureus T21; test: Antimicrobial assay (MIC, agar dilution)
Protocol: as §3

[23] = tested on: Staphylococcus aureus T11; test: Antimicrobial assay (MIC, agar dilution)
Protocol: as §3

[24] = tested on: Staphylococcus aureus T306; test: Antimicrobial assay (MIC, agar dilution)
Protocol: as §3

[25] = tested on: Staphylococcus pettenkoferi T33; test: Antimicrobial assay (MIC, agar dilution)
Protocol: as §3

[26] = tested on: Dermabacter hominis T47A7; test: Antimicrobial assay (MIC, agar dilution)
Protocol: as §3

[27] = tested on: Staphylococcus aureus 8148; test: Antimicrobial assay (MIC, agar dilution)
Protocol: as §3

[28] = tested on: Staphylococcus aureus T26A4; test: Antimicrobial assay (MIC, agar dilution)
Protocol: as §3

[29] = tested on: Pseudomonas aeruginosa T41; test: Antimicrobial assay (MIC, agar dilution)
Protocol: as §3

[30] = tested on: Streptococcus agalactiae T53A4; test: Antimicrobial assay (MIC, agar dilution); conditions: amoxicillin
Protocol: as §3

SMILES: CC[C@@]1(O)C(=O)OCc2c1cc1n(c2=O)Cc2cc3ccccc3nc2-1 [Camptothecin]
- IC50 ([1]; Mus musculus, J774, MTT, 72 h, mean ± SEM, six determinations): 0.011 ± 0.002 µg/mL
- SI (IC50 WI38/IC50 J774) ([1]; selectivity index WI38 vs J774): 15^∗∗∗
- IC50 [2]: 0.175 ± 0.029 µg/mL

- Reference antibiotics MIC values ([3]; gentamicin): S (Gent (gentamicin), S: ≤4)
- Reference antibiotics MIC values ([4]; gentamicin): S (Gent (gentamicin), S: ≤4)
- Reference antibiotics MIC values ([5]; gentamicin): S (Gent (gentamicin), S: ≤4)
- Reference antibiotics MIC values ([6]; gentamicin): S (Gent (gentamicin), S: ≤4)
- Reference antibiotics MIC values ([7]; gentamicin): S (Gent (gentamicin), S: ≤4)
- Reference antibiotics MIC values ([8]; gentamicin): S (Gent (gentamicin), S: ≤4)
- Reference antibiotics MIC values ([9]; gentamicin): S (Gent (gentamicin), S: ≤4)
- Reference antibiotics MIC values ([10]; gentamicin): S (Gent (gentamicin), S: ≤4)
- Reference antibiotics MIC values ([11]; gentamicin): S (Gent (gentamicin), S: ≤4)
- Reference antibiotics MIC values ([12]; gentamicin): S (Gent (gentamicin), S: ≤4)
- Reference antibiotics MIC values (Escherichia coli T20A2; gentamicin): R (R: >8)
- Reference antibiotics MIC values ([13]; gentamicin): S (Gent (gentamicin), S: ≤4)
- Reference antibiotics MIC values ([14]; gentamicin): R (R: >8)
- Reference antibiotics MIC values ([15]; gentamicin): R (R: >8)
- Reference antibiotics MIC values ([16]; gentamicin): S (Gent (gentamicin), S: ≤4)
- Reference antibiotics MIC values ([17]; gentamicin): S (Gent (gentamicin), S: ≤4)
- Reference antibiotics MIC values ([18]; gentamicin): S (Gent (gentamicin), S: ≤4)
- Reference antibiotics MIC values ([19]; gentamicin): S (Gent (gentamicin), S: ≤4)
- Reference antibiotics MIC values ([20]; gentamicin): S (Gent (gentamicin), S: ≤4)
- Reference antibiotics MIC values ([21]; gentamicin): S (Gent (gentamicin), S: ≤4)
- Reference antibiotics MIC values ([22]; gentamicin): S (Gent (gentamicin), S: ≤4)
- Reference antibiotics MIC values ([23]; gentamicin): S (Gent (gentamicin), S: ≤4)
- Reference antibiotics MIC values ([24]; gentamicin): S (Gent (gentamicin), S: ≤4)
- Reference antibiotics MIC values ([25]; gentamicin): S (Gent (gentamicin), S: ≤4)
- Reference antibiotics MIC values ([26]; gentamicin): S (Gent (gentamicin), S: ≤4)
- Reference antibiotics MIC values ([27]; gentamicin): S (Gent (gentamicin), S: ≤4)
- Reference antibiotics MIC values ([28]; gentamicin): S (Gent (gentamicin), S: ≤4)
- Reference antibiotics MIC values ([29]; gentamicin): S (Gent (gentamicin), S: ≤4)
SMILES: CNC(C)C1CCC(N)C(OC2C(N)CC(N)C(OC3OCC(C)(O)C(NC)C3O)C2O)O1 (stereo not drawn) [Gent, gentamicin]

- Reference antibiotics MIC values ([3]; amoxicillin): S (Amox (amoxicillin), S: ≤4)
- Reference antibiotics MIC values ([4]; amoxicillin): S (Amox (amoxicillin), S: ≤4)
- Reference antibiotics MIC values ([5]; amoxicillin): R (R: >16)
- Reference antibiotics MIC values ([6]; amoxicillin): S (Amox (amoxicillin), S: ≤4)
- Reference antibiotics MIC values ([7]; amoxicillin): S (Amox (amoxicillin), S: ≤4)
- Reference antibiotics MIC values ([8]; amoxicillin): S (Amox (amoxicillin), S: ≤4)
- Reference antibiotics MIC values ([9]; amoxicillin): S (Amox (amoxicillin), S: ≤4)
- Reference antibiotics MIC values ([10]; amoxicillin): R (R: >16)
- Reference antibiotics MIC values ([11]; amoxicillin): S (Amox (amoxicillin), S: ≤4)
- Reference antibiotics MIC values ([12]; amoxicillin): R (R: >16)
- Reference antibiotics MIC values (Escherichia coli T20A2; amoxicillin): S (Amox (amoxicillin), S: ≤4)
- Reference antibiotics MIC values ([13]; amoxicillin): R (R: >16)
- Reference antibiotics MIC values ([14]; amoxicillin): R (R: >16)
- Reference antibiotics MIC values ([15]; amoxicillin): R (R: >16)
- Reference antibiotics MIC values ([16]; amoxicillin): S (Amox (amoxicillin), S: ≤4)
- Reference antibiotics MIC values ([17]; amoxicillin): R (R: >16)
- Reference antibiotics MIC values ([18]; amoxicillin): S (Amox (amoxicillin), S: ≤4)
- Reference antibiotics MIC values ([19]; amoxicillin): S (Amox (amoxicillin), S: ≤4)
- Reference antibiotics MIC values ([20]; amoxicillin): S (Amox (amoxicillin), S: ≤4)
- Reference antibiotics MIC values ([21]; amoxicillin): R (R: >16)
- Reference antibiotics MIC values ([22]; amoxicillin): R (R: >16)
- Reference antibiotics MIC values ([23]; amoxicillin): R (R: >16)
- Reference antibiotics MIC values ([24]; amoxicillin): S (Amox (amoxicillin), S: ≤4)
- Reference antibiotics MIC values ([25]; amoxicillin): R (R: >16)
- Reference antibiotics MIC values [30]: R (R: >16)
- Reference antibiotics MIC values ([26]; amoxicillin): R (R: >16)
- Reference antibiotics MIC values ([27]; amoxicillin): R (R: >16)
- Reference antibiotics MIC values ([28]; amoxicillin): R (R: >16)
- Reference antibiotics MIC values ([29]; amoxicillin): R (R: >16)
SMILES: CC1(C)S[C@@H]2[C@H](NC(=O)[C@H](N)c3ccc(O)cc3)C(=O)N2[C@H]1C(=O)O [Amox, amoxicillin]
